# Source: patent publication EP2759295A1, “Foam cell specific Liver X Receptor (LXR) alpha agonist, SIRT1 inhibitors as well as p300 inhibitors as pharmaceutically active agents” (Max-Planck-Gesellschaft zur Förderung der Wissenschaften …, priority 2013, dated 2014)
# Where two headings read alike, the source gives them in different places.
# How the values were obtained:
# HepG2 cells = experiment: Western-Blot analysis of p53 (Lys382) acetylation in HepG2 cells; format: cell-based, human; conditions: 30 µM, 16 hours, 20 µM Etoposide
# Procedure: HepG2 cells were seeded in 6-well plates (2.5 x 10^5 cells/well). 48 h later cells were treated with 20 µM Etoposide to induce p53 acetylation and directly afterwards with NP 1 or DMSO (VC) for 16 h. Cells were harvested and separated into cytosolic and nuclear fractions (NE-PER Nuclear and Cytoplasmic Extraction Reagents). Samples were denatured and SDS-PAGE was performed using NuPAGE Novex 4-12% Bis-Tris Gels. Proteins were blotted on nitrocellulose Hybond ECL membrane. Primary antibodies used were β-actin, p53 and acetyl-p53 (Lys382). Secondary antibodies were HRP-conjugated goat anti-rabbit IgG-HRP and goat anti-mouse IgG-HRP. Detection was performed with Western Lightning Plus-ECL solution. Membranes were stripped with Restore Plus Western Blot Stripping Buffer for 15 min.
# Densitometry was performed in GelAnalyzer 2010a, which is a software tool to quantitatively measure the optical density. It provides accurate Western-Blot analysis and helps to detect differences which are not visible by the naked eye. Log(p53-Ac/p53-total) was calculated for every sample and statistical analysis was performed.
# SIRT1 = target: T1, SIRT1 (Homo sapiens, UniProt Q96EB6); experiment: MALDI-TOF MS deacetylation assay; format: biochemical
# T1 construct: purchased Biomol International, Inc. / Enzo Life Sciences / BlueSky BioTech
# T1 sequence (Q96EB6 1-747): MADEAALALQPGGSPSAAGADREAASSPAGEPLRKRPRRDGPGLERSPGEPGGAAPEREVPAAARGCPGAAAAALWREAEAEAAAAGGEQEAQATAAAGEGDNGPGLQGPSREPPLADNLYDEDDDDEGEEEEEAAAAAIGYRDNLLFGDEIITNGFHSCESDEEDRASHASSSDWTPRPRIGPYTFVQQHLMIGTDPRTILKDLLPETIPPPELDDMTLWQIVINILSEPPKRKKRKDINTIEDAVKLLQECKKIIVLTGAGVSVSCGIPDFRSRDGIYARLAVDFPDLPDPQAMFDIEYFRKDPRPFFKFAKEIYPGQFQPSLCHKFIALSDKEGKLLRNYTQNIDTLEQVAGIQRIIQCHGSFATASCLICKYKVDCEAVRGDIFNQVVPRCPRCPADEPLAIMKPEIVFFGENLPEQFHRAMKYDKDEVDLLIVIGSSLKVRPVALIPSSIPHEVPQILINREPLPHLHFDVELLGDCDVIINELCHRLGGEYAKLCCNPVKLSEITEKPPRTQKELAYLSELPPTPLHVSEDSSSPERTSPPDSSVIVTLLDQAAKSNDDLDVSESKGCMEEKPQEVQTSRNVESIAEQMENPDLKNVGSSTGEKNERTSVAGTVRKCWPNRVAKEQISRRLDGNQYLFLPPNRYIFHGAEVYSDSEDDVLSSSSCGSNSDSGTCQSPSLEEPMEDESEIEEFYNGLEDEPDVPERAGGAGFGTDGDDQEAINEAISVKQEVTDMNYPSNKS
# Procedure: The assay was performed in a 20 µL reaction. 0.5 µM acetylated peptide and 120 µM NAD^+ in reaction buffer (50 mM Tris-acetate (pH 8), 137 mM NaCl, 2.7 mM KCI, 1 mM MgCl2, 5 mM DTT, 0.05 % BSA) were mixed with compound or DMSO (VC). Reactions were initiated by adding 10 nM of SIRT1. After incubation for 30 min at 37°C, reactions were stopped by formic acid and nicotinamide (f.c. 1% and 5 mM, respectively). Reactions were performed with histone H4 peptide and 1% DMSO unless stated otherwise. […]
# Acetylated and deacetylated peptides were mixed at different ratios in the respective buffer including stop solution and reaction components except the enzyme. Purification, preparation and MS detection were conducted in parallel to reaction samples. CCs were generated for IC50 value determination but not for the screening.
# Peptides were purified by Oasis HLB µElution Plates using a vacuum manifold [S. Sauer et al. J Chromatogr A (2004), 1049, 9-16]. Plate columns were conditioned by 70% ACN and equilibrated with 0.1% TFA. Samples were loaded, desalted by 0.1 % TFA and H2O and eluted in 70% ACN.
# For ultra thin layer (UTL), supernatant of saturated CHCA in ACN / H2O (2:1) and 0.1% TFA. was mixed with isopropanol (1:3) and was spread on a ground steel target. After solvent evaporated excess of CHCA was removed from target surface with a tissue [D. Fenyo et al. J Vis Exp (2007), 192]. The matrix used for sample preparation contained saturated CHCA in ACN / 0.1% TFA (1:2) or ACN / H2O (1:2) depending on peptide size [S. L. Cohen et al. Anal Chem (1996), 68, 31-37]. HLB eluted samples and matrix were mixed (1:4) and spotted on the UTL.
# Samples were measured automatically (AutoXecute software, Bruker Daltonik GmbH) using an ultraflex II MALDI-TOF mass spectrometer (Bruker Daltonik GmbH) in positive ion reflector mode. Laser power and detector gain were adjusted prior to every automatic run, which were performed in random walk movement.
# For assay optimization and IC50 determination, 1000 shots were accumulated in 100 satisfactory shot steps (fuzzy control). At least one peak within a defined mass range had to fulfill the following criteria for the spectra to be accumulated: Absolute (min.) intensity: 800; S/N: 15; peak width: 0.2.
# A script (Bruker Daltonik GmbH) was employed to analyze peptide peaks in a batch process (flexAnalysis software, Version 3.0, Bruker Daltonik GmbH). Percentage of de-/acetylation were calculated using the sum of the first four monoisotopic peak intensities. CC was generated by plotting experimental vs. calculated peptide acetylation. Measured sample values were interpolated with CC to determine de-/acetylation values (GraphPad Prism). When no CC was created, peak intensity ratios were generated. Verified single NP screening hits had to pass a peak ratio of ≤ 0.1 (deac/ac).
# As IC50 values were not gained at initial velocity conditions, values were corrected by a conversion factor according to Wu et al. (Table 5) [G. Wu et al. J Biomol Screen (2003), 8, 694-700].
# [1] = target: T2, LXRα ligand binding domain (LBD) (Homo sapiens, UniProt Q13133); experiment: dual luciferase reporter gene assay with LXRα ligand binding domain in HEK-293 cells; format: cell-based
# T2 construct: expressed in transfected cells; host or cells: HEK-293
# T2 sequence (Q13133 164-447): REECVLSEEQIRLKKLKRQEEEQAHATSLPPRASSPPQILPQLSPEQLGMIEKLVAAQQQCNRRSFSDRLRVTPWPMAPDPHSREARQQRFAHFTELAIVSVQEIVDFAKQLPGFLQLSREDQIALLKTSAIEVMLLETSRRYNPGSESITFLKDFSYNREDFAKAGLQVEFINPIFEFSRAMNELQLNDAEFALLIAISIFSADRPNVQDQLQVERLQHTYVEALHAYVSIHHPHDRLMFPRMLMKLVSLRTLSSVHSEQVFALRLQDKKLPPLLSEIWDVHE
# Procedure: The ligand binding domain (LBD) of LXRα (amino acids 164 to 447) or LXRβ (amino acids 154 to 461) was cloned into pBIND [Renilla/Amp] vector (Promega). Selection and amplification were performed in E-coli cells. Purification of the plasmids was performed with a plasmid purification kit (Qiagen). For transfection HEK-293 cells were plated in 96-well plates (TPP) at a density of 3.5 x 10^4 cells/well for 24 h. To investigate the ligand binding on LXRα ligand binding domain, 0.04 ng of renilla luciferase coding plasmide pGL4.75 (Promega), 0.04 ng of LXRα-LBD/GAL4-DBD plasmide and 80 ng of firefly luciferase coding plasmide pGL4.31 (Promega) were used in a total volume of 200 µL for each well. In LXRβ binding assay 40 ng of LXRβ-LBD/GAL4-DBD plasmide were applied in each transfection mix. Transfection was carried out for 4 h with Lipofectamine 2000 Transfection Reagent (Invitrogen) in Opti-MEM medium (Invitrogen). Ligand treatment was performed at different concentrations for 24 h. For lysis and detection dual-luciferase reporter gene assay system (Promega) and POLARstar Omega (BMG LABTECH) were used.
# macrophages [2] = experiment: microarray genome-wide gene expression and GSEA in macrophages; format: cell-based, human; conditions: 10 µM
# Procedure: Microarray analyses were performed according to instructions of Illumina's TotalPrep RNA Amplification Kit followed by hybridisation on HumanHT-12 v3 or HumanHT-12 v4 Expression BeadChips (illumina). Data analysis was performed with GenomeStudio V2011.1 (illumina). Differential expression analysis was performed on background-subtracted data with cubic spline normalization and Benjamini-Hochberg FDR correction. Significant data was considered to have a detection p-value of ≤ 0.01 and differential expression p-value of ≤ 0.05 according to Illumina's t-test error model. […] Bead array data were validated by quantitative real-time PCR. The Gene Distance Matrix was conducted in Euclidean space using the MeV 4.3 software tool [Saeed A.I. et al. Biotechniques (2003), 34, 374-378]. Gene Set Enrichment Analysis (GSEA) was performed as described elsewhere [Subramanian A. et al. Proc. Natl. Acad. Sci. (2005) 102, 15545-15550] with the following parameters: 1000 gene set permutations, weighted enrichment statistics, minimal gene set size of 5, and signal-to-noise metric. Enrichment of pathways was tested using the Reactome (v3.0) and the KEGG (v3.0) database from the Molecular Signature Database (MSigDB). Heatmaps were carried out with Mayday 2.8 [Battke F. et al. BMC Bioinformatics (2012), 11, 121]. […]
# foam cells [3] = experiment: cholesterol content in foam cells (Amplex Red Cholesterol Assay); format: cell-based, human; conditions: 10 µM, 48 h
# Procedure: (§1) THP-1 monocytes were plated out into 24-well plates (Nunc) at a density of 2 x 10^5 cells/well. After differentiation and treatment cells were lysed with 100 µL lysis buffer (PBS, 0.25 M NaCl, 1% Triton X-100). Total and free cholesterol were determined using the colorimetric enzymatic Amplex Red Cholesterol Assay Kit (Invitrogen). Triglycerides were quantified by Triglyceride Assay Kit (BioVision). For normalisation protein content was determined with Pierce 660 nm Protein Assay Reagent (Thermo Scientific).
# macrophages [4] = experiment: triglyceride content in macrophages (Triglyceride Assay Kit); format: cell-based, human; conditions: 10 µM, 48 h
# Procedure: as §1
# foam cells [5] = experiment: microarray genome-wide gene expression and GSEA in foam cells; format: cell-based, human; conditions: 10 µM
# Procedure: Microarray analyses were performed according to instructions of Illumina's TotalPrep RNA Amplification Kit followed by hybridisation on HumanHT-12 v3 or HumanHT-12 v4 Expression BeadChips (illumina). Data analysis was performed with GenomeStudio […].1 (illumina). Differential expression analysis was performed on background-subtracted data with cubic spline normalization and Benjamini-Hochberg FDR correction. […] Gene expression data were submitted in MIAME-compliant form to the NCBI Gene Expression Omnibus database (GSE39079). Bead array data were validated by quantitative real-time PCR. The Gene Distance Matrix was conducted in Euclidean space using the MeV 4.3 software tool [[…]. et al. Biotechniques (2003), 34, 374-378]. Gene Set Enrichment Analysis (GSEA) was performed as described elsewhere [Subramanian A. et al. Proc. Natl. Acad. Sci. […] Enrichment of pathways was tested using the Reactome (v3.0) and the KEGG (v3.0) database from the Molecular Signature Database (MSigDB). Heatmaps were carried out with […]. et al. BMC Bioinformatics (2012), 11, 121]. For presentation of treatment effects in the heatmap, the pathway normalized enrichment score (NES) was adjusted with the appropriate FDR as follows: adjustedNES = (1-FDR) x NES.
# foam cells [6] = experiment: triglyceride content in foam cells (Triglyceride Assay Kit); format: cell-based, human; conditions: 10 µM, 48 h
# Procedure: as §1
# THP-1 macrophages [7] = experiment: qPCR gene expression of LXRα target genes in THP-1 macrophages; format: cell-based, human; conditions: 10 µM
# Procedure: (§2) For generating macrophages differentiation was induced by 10^-8 M Phorbol 12-myristate 13-acetate (PMA) (Sigma-Aldrich) for 48 h. Ligand treatment of macrophages was performed for further 24 h. To induce foam cell formation macrophages were treated for additional 48 h with 100 µg/mL modified human oxidized low density lipoprotein (oxLDL) obtained from Source BioScience (RP-048). Ligand treatment was performed simultaneously with foam cell formation. Cholesterol loading and treatment was controlled with Oil Red O staining (Alfa Aeser). To investigate ligand induced effects on cell proliferation of THP-1 macrophages CellTiter-Glo Luminescent Cell Viability Assay (Promega) was utilized.
# (§3) Total RNA isolation and purification was performed by using the RNeasy Mini Kit (QIAGEN) and RNase-Free DNase Set (QIAGEN). cDNA was generated by reverse transcription using the High Capacity cDNA Reverse Transcription Kit (Applied Biosystems). Gene expression was quantified using the SYBR Green PCR Master Mix (Applied Biosystems) and ABI 7900HT Fast Real Time PCR System (Applied Biosystems). In each reaction 0.8 ng/µL cDNA and 0.2 µM primers were used. Gene expression was calculated with the ΔΔCt-method. β-Actin was used for normalisation.
# THP-1 macrophages [8] = experiment: CellTiter-Glo viability assay in THP-1 macrophages; format: cell-based, human
# Procedure: as §2
# foam cells [9] = experiment: siRNA-mediated LXRα/β knockdown in foam cells with qPCR; format: cell-based, human; conditions: 10 µM ligand for 24 h
# Procedure: Target specificity of ligand-dependent gene expression effects was investigated in siRNA-mediated LXRα and β-knockdown foam cells with subsequent qPCR or microarray analysis. Therefore, 2 x 10^5 THP-1 cells/well were differentiated in 24-well plate and induced to foam cells prior to knockdown as described above. Foam cells were transfected using TransIT-TKO transfection reagent (Mirus Bio), for combined knockdown with 15 nM LXRα Silencer Validated siRNA (Ambion, ID 5458) and 15 nM LXRβ Silencer Select Validated siRNA (Ambion, ID s14684) and with 30 nM LXRα or LXRβ for individual knockdowns, respectively. As control we used 30 nM Silencer Select Negative Control #1 (Ambion). Transfection was carried out for 48 h and followed by treatment with 10 µM ligand or vehicle control for 24 h.
# as §3
"IC50 (SIRT1; Table 3, corrected values (see Table 5), read-out: IC50 values) [µM]","IC50 (SIRT1; corrected by conversion factor according to Wu et al., read-out: Corrected IC50) [µM]","IC50 (SIRT1; uncorrected, not at initial velocity conditions, read-out: Obtained IC50') [µM]","Efficacy ([1]; +DMSO, reporter gene transcription vs. T09) [%]",SMILES,p53 acetylation in the nuclear fraction (HepG2 cells),specificity LXRα vs. LXRβ ([1]; reporter-gene assays with LXRα and LXRβ LBD),expression of genes involved in lipid metabolism processes (macrophages [2]),total and esterified cholesterol content (foam cells [3]),triglyceride level (macrophages [4]),Lipid metabolism processes (gene set enrichment) (foam cells [5]),triacylglyceride biosynthesis (transcriptional regulation) (foam cells [5]),triglyceride levels (foam cells [6]),"expression of LXRα target genes (LXRα, SREBF1, ABCA1, APOE) (THP-1 macrophages [7])",no cytotoxic effects / no reduction of cellular viability up to (THP-1 macrophages [8]),gene expression of LXRα and ABCA1 after LXRα/β knockdown (foam cells [9])
9.7 ± 0.7,9.7 ± 0.7,13 ± 1,,"COc1cc(-c2ccc(O)cc2)c(OC)c(O)c1C1=CC(=O)OC1CC(=O)O (stereo not drawn) [NP 1, 2-(3-(3,4'-dihydroxy-2,5-dimethoxybiphenyl-4-yl)-5-oxo-2,5-dihydrofuran-2-yl)acetic acid]",significant increase of p53 acetylation,,,,,,,,,,
,,,100,"O=S(=O)(c1ccccc1)N(CC(F)(F)F)c1ccc(C(O)(C(F)(F)F)C(F)(F)F)cc1 [T09, reference compound]",,bound to LXRα and LXRβ with similar affinity,activated,significant reduction of total and esterified cholesterol content,stayed unchanged,comparably up-regulated,transcriptionally induced,increased triglyceride levels,increased expression of LXRα target genes,no cytotoxic effects,significant reduction of LXRα and ABCA1 expression
